In data set [1] the test system is surface PD-L1 on RMS 76.9 (Rhabdomyosarcoma) cells. Kind of data set: Surface PD-L1 expression on RMS 76.9 cells upon IFNγ exposure in the presence of compound. The format is cell-based, mouse. The following applies: 24-hour exposure, IFNγ 100 ng/ml. On the procedure:
(§1) a) Seed wild type MM1 (Medulloblastoma) and RMS 76.9 (Rhabdomyosarcoma) tumor cells (100,000 per well in 6-well plate and 3 ml media). Use PD-L1-deficient tumor cells (crPDL1; genetically manipulated using CRISPR-Cas9 technology) as controls:
(§2) b) Serum starve overnight
(§3) c) Add various concentration of CYC065 in DMSO, along with 100 ng/ml IFNγ
(§4) d) 24 hours later, harvest cells, stain for PD-L1 using anti-mPDL1-PE antibody and analyze by flow cytometry

In data set [2] the test system is PD-L1, MHC-II and MHC-I surface expression on harvested MM1 tumor cells. Kind of data set: IFNγ response of tumor cells harvested on Day 21 from treated mice and cultured in vitro. The format is cell-based, mouse. Particulars: tumors from in vivo treated mice; cultured 7-10 days without compound; IFNγ 100 ng/ml 24 hours. An excerpt: i) Tumor mass was resected on Day 21 and grown in culture for 1 week, followed by 24-hour exposure to IFNγ to assess PD-L1 response in vitro.

Data set [3] deals with surface PD-L1 on MM1 (Medulloblastoma) cells. Kind of data set: Surface PD-L1 expression on MM1 cells upon IFNγ exposure in the presence of compound. In kind it is cell-based, mouse. As to the method: as §1, §2, §3, §4
Another data set deals with MM1 tumors. Kind of data set: In vivo anti-tumor efficacy against subcutaneous MM1 tumors. As to the method:
e) 10 8-12 week-old […] male mice per cohort were used for all in vivo tumor growth kinetics experiment.
f) 50,000 tumor cells were inoculated subcutaneously in the flank on Day 0
h) Mice were monitored at least twice a week for tumor growth and tumor size measurements.

For data set [4], the system named is PD-L1 transcript in MM1 WT cells. Kind of data set: PD-L1 mRNA expression (qPCR) in MM1 WT cells treated with Roscovitine and stimulated with IFNγ. The format is cell-based, mouse. Particulars: Roscovitine 10 μM or 20 μM, 4 days, IFNγ 100 ng/ml 24 hours. As to the method:
Total cellular RNA was isolated from 5×10^6-107 cells using TRIZOL and RNAspin Mini kit (GE Healthcare, UK), treated with DNAseI to eliminate genomic DNA, and quantitated using the NanoDrop2000 spectrophotometer. Reverse transcription (RT) of 1 μg of total RNA was performed with oligo(dT)16 using on using SuperScript First Strand Synthesis System for RT-PCR kit (Life Technologies, Carlsbad, Calif.). The resulting cDNA was used as a template for the amplification of target gene transcripts by real time PCR, using SYBR Green PCR Master Mix (Life Technologies, Carlsbad, Calif.) on the ABI 7300 Real-Time PCR machine (Life Technologies, Carlsbad, Calif.). Target gene expression was calculated using the standard curve method upon normalization to cytochrome c housekeeping gene. The primer sequences were as follows: Cdk5 forward: […]; Cdk5 reverse: […]; cytochrome c forward: […]; cytochrome c reverse: […]; p35 forward: […]; p35 reverse: […]; PD-L1 forward: […] and PD-L1 reverse: […].
Murine MB cell lines MM1 were grown in RPMI supplemented with 10% FBS. A stock solution of Roscovitine (10 mM) or vehicle control-DMSO was diluted in fresh tumor medium and added to samples to achieve a final concentration of 10 μM or 20 μM. After 4 days of treatment, cells were subjected to 100 ng/ml rmIFN-γ (R&D Systems) for 24 hours and then harvested for qPCR analysis.

The test system of data set [5] is surface PD-L1 on DAOY and UW228 human MB lines. Kind of data set: Surface PD-L1 (flow cytometry) on human MB lines treated with Roscovitine and stimulated with IFNγ. The format is cell-based. The following applies: IFNγ 24 hours.
In data set [6] the test system is surface PD-L1 on MM1 (Medulloblastoma) cells. Particulars: same cell lines (MM1, RMS); reported in Dorand et al. Science 2016; cited from earlier work.
[7] abbreviates: MM1, 24-hour exposure, IFNγ 100 ng/ml.

Structures are written as SMILES. Bounds are passed on as bounds.

Consider `CC[C@H](Nc1nc(NCc2cnc(C)cc2C)c2ncn(C(C)C)c2n1)[C@@H](C)O` [CYC065], for which the “concentration at which PD-L1 response upon IFNγ stimulation is completely abrogated” value in data set [1] worked out at 1 µM. For the same molecule, in data set [2], the “MHC-II/MHC-I response upon in vitro exposure to IFNγ” value is “enhanced MHC-II/MHC-I enhancement” and the “PD-L1 response upon in vitro exposure to IFNγ” value is “reduced PD-L1 response”. Also, in data set [3] (setting [7]), the “concentration at which PD-L1 response upon IFNγ stimulation is completely abrogated” value was 1 µM and the “concentration at which cells began to show PD-L1 down-modulation” value stood at 0.5 µM. Moreover, in data set [3] (MM1 and RMS cell lines), the “increase in potency for PD-L1 down modulation as compared to Roscovitin” value is listed as more than 10 fold. In the data set on MM1 tumors (50 mg/kg daily×5 days/week by gavage in water, prolonged exposure, MM1-bearing C57BL/6 mice), the mortality was determined as 70%. In the data set with MM1 tumors (50 mg/kg daily×5 days/week by gavage, start Day 0 or Day 7), the tumor size entry is given as “significantly smaller sized tumor”.

For `CC[C@H](CO)Nc1nc(NCc2ccccc2)c2ncn(C(C)C)c2n1` [Roscovitine, 6-benzylamino-2-[(R)-1-ethyl-2-hydroxyethylamino]-9-isopropylpurine], in data set [4], the PD-L1 transcript entry is “dose-dependent decrease”. The “surface PD-L1 upregulation upon IFNγ exposure” value in data set [5] was “diminished surface PD-L1 upregulation”. The “concentration at which effects on PD-L1 down modulation are shown” value in data set [6] is not below 10 µM.
